Assay results as given in US20250325503A1, “NEW USE OF N,N-BIS-2-MERCAPTOETHYL ISOPHTHALAMIDE” (EMERAMED LIMITED, priority 2016, published 2025).

Legend:
[1] = system: paracetamol intoxicated mice; assay: Paracetamol intoxicated mice study, i.p. paracetamol (ALT, AST); assay type: in vivo; conditions: paracetamol 300 mg/kg I.P., 24 hours
Experimental: In normal mice, the liver enzyme alanine transaminase (ALT) level is about 36-40 unit/L and the liver enzyme aspartate transaminase (AST) level is about 90 unit/L. […] The ratio of AST: ALT can also be relevant in humans; a value at or below 1 is considered to indicate toxicity. […] 30 minutes later, two (2) of the mice were administered vehicle only, two (2) received NAC 1200 mg/kg per os, two (2) received NBMI 200 mg/kg per os. The mice were sacrificed at 24 hours.

[2] = system: human TRPA1; assay: Ratiometric calcium imaging of NAPQI activation of TRPA1 in HEK 293 cells; assay type: cell-based; conditions: 7 μM NAPQI; for inhibition of the activation of the receptor (TRPA1) by NAPQI: 4 μM test substance, HEK 293 cells expressing human TRPA1, FIG. 1
Experimental: The calcium ion channel TRPA 1 is activated by NAPQI. This activation may be determined by ratiometric calcium imaging.
HEK 293 cells expressing human TRPA1 were pre-incubated with 7 μM NAPQI and the calcium fluorophore FURA II. One experiment was run in the presence of 4 μM NBMI and the another was run in the presence of 4 μM NAC.

[3] = system: paracetamol intoxicated mice; assay: NBMI versus vehicle in paracetamol intoxicated mice, i.p. paracetamol, synchronised oral dosing (AST, ALT); assay type: in vivo
Experimental: (§1) The ratio of AST: ALT can also be relevant in humans; a value at or below 1 is considered to indicate toxicity.
Mice were sacrificed at 24 hours after administration, following which levels of liver enzymes AST and ALT were measured.
In the NBMI-treated group, eleven (11) mice were treated.

[4] = Clinical trials of NBMI, adverse events; assay type: in vivo; conditions: 4.5-9 mg/kg dose in humans
[5] = Clinical proof of concept study: paracetamol and cys-paracetamol in venous blood after 1 g paracetamol with or without NBMI; assay type: in vivo, human; conditions: venous blood over eight hours
Experimental: A pilot clinical study was performed at the Lund Hospital Clinical Trial Unit, on three occasions.

[6] = system: paracetamol intoxicated mice; assay: Paracetamol intoxicated mice study, oral paracetamol (ALT); assay type: in vivo
Experimental: as §1
20 minutes later, half of the mice (3) were administered vehicle (0.5% (w/v) carboxymethylcellulose 300-600 centipoises in water) only, half of the mice (3) received NBMI 100 mg/kg per os (NBMI dissolved in CMC as described below). […]

[7] = NBMI 200 mg/kg per os 30 minutes later
[8] = paracetamol 200 mg/kg i.p., synchronous oral NBMI 680 mg/kg in CMC, 24 hours
[9] = NAC 1200 mg/kg per os 30 minutes later

Compound | AST level (printed as ALT level) [1, 7] | average ALT level [1, 7] | inhibition of the activation of the receptor (TRPA1) by NAPQI [2] | AST/ALT ratio, average ([3]; 680 mg/kg, 24 h) | ALT, average [3, 8] | AST, average [3, 8] | drug related adverse events [4] | decrease of area under the curve (AUC) of cys-paracetamol ([5]; 600 mg NBMI one hour prior to 1 g paracetamol) | decrease of area under the curve (AUC) of cys-paracetamol ([5]; 1,200 mg NBMI two hours before 1 g paracetamol) | median ALT level ([6]; paracetamol 700 mg/kg per os, NBMI 100 mg/kg per os 20 minutes later, sacrificed at 17 hours) | median ALT lower than the median of the intoxicated animals ([6]; po, 100 mg/kg) | AST level [1, 9] | average ALT level [1, 9] | receptor activation ([2]; in the absence of NBMI or NAC)
O=C(NCCS)c1cccc(C(=O)NCCS)c1 [NBMI, N,N-bis-2-mercaptoethyl isophthalamide] | 600 unit/L | 984 unit/L | almost completely inhibited | 2.1 | 952 units/L | 753 units/L | no drug related adverse events | 23% | 73% | 624 unit/L | about 95% |  |  | 
CC(=O)N[C@@H](CS)C(=O)O [NAC, N-acetyl cysteine, reference compound] |  |  | only partial inhibition |  |  |  |  |  |  |  |  | 180 unit/L | 55 unit/L | 
CC(=O)N=C1C=CC(=O)C=C1 [NAPQI, N-acetyl-p-benzoquinone imine] |  |  |  |  |  |  |  |  |  |  |  |  |  | about 55%
